Data as given in patent US10815247B2, “Functionalized NANOLUC inhibitors” (PROMEGA CORPORATION, priority 2016, dated 2020).

molecular target: NanoLuc (Oplophorus gracilirostris, UniProt Q9GV45, A31E/A60N/A81I/F95D/I117V/K70R/L54V/L99Q/M102K/N193R/P142E/Q151K/Q38R/Q45L/V71I/Y165I); assay: Inhibitor IC50 determination; format: biochemical; conditions: not given
Protocol: The following example provides the IC50 values for the compounds disclosed herein. NANOLUC® enzyme was diluted to 0.4 ng/ml in CO2 independent media+10% FBS to make the detection reagent. A 3× dilution series of each inhibitor was then made in the detection reagent. A “no inhibitor” control was also made for each sample. 50 ul of each inhibitor dilution was mixed with 50 ul of NanoGlo® buffer containing 20 μM furimazine (final furimazine concentration is 10 μM, which is at Km.), and luminescence was measured. Each sample was normalized to the “no inhibitor” control. The IC50 values were then determined using GraphPad Prism (log[inhibitor] vs. normalized response).

Chain of NanoLuc (Q9GV45 28-196 with tags or gaps with the stated changes limits assumed): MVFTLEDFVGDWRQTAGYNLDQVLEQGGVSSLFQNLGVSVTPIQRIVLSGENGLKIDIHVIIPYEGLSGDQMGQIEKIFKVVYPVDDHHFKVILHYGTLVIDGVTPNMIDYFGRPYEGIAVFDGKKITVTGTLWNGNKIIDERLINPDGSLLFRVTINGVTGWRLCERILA

| Structure (SMILES) | IC50 |
| --- | --- |
| CCN(C(=O)Cn1c(C(=O)N[C@H]2CC[C@H](C(=O)NCCCCCCNC(=O)c3ccc4c(c3)C(=O)OC43c4ccc(O)cc4Oc4cc(O)ccc43)CC2)cc2sccc21)c1cccc(C)c1 [JRW-0200, N-(trans-4-((6-(3′,6′-dihydroxy-3-oxo-3H-spiro[isobenzofuran-1,9′-xanthene]-5-carboxamido)hexyl)carbamoyl)cyclohexyl)-4-(2-(ethyl(m-tolyl)amino)-2-oxoethyl)-4H-thieno[3,2-b]pyrrole-5-carboxamide] | 49 nM |
| CCN(C(=O)Cn1c(C(=O)N[C@H]2CC[C@H](C(=O)OC)CC2)cc2sccc21)c1cccc(CBr)c1 [JRW-0466, methyl trans-4-(4-(2-((3-(bromomethyl)phenyl)(ethyl)amino)-2-oxoethyl)-4H-thieno[3,2-b]pyrrole-5-carboxamido)cyclohexane-1-carboxylate] | 2.1 nM |
| CCN(C(=O)Cn1c(C(=O)N[C@H]2CC[C@H](C(=O)NCCCCCC(=O)NCCOCCOCCC(=O)ON3C(=O)CCC3=O)CC2)cc2sccc21)c1cccc(C)c1 [JRW-0520, 2,5-dioxopyrrolidin-1-yl 1-(trans-4-(4-(2-(ethyl(m-tolyl)amino)-2-oxoethyl)-4H-thieno[3,2-b]pyrrole-5-carboxamido)cyclohexyl)-1,8-dioxo-12,15-dioxa-2,9-diazaoctadecan-18-oate] | 94 nM |
| CCN(C(=O)Cn1c(C(=O)N[C@H]2CC[C@H](C(=O)NCCCCCC(=O)NCCOCCOCCOCCC(=O)ON3C(=O)CCC3=O)CC2)cc2sccc21)c1cccc(C)c1 [JRW-0525] | 84 nM |
| CCN(C(=O)Cn1c(C(=O)N[C@H]2CC[C@H](C(=O)NCCCCCC(=O)NCCOCCOCCOCCOCCC(=O)ON3C(=O)CCC3=O)CC2)cc2sccc21)c1cccc(C)c1 [JRW-0533] | 92 nM |
| CCN(C(=O)Cn1c(C(=O)N[C@H]2CC[C@H](C(=O)NCCCCCCNC(=O)CCOCCOCCNC(=O)CCN3C(=O)C=CC3=O)CC2)cc2sccc21)c1cccc(C)c1 [JRW-0559] | 33 nM |
| CCc1cccc(N(CC)C(=O)Cn2c(C(=O)N[C@H]3CC[C@H](C(=O)NCCCCCCCC(=O)OC)CC3)cc3ccccc32)c1 [JRW-0597, methyl 8-(trans-4-(1-(2-(ethyl(3-ethylphenyl)amino)-2-oxoethyl)-1H-indole-2-carboxamido)cyclohexane-1-carboxamido)octanoate] | 0.16 nM |
| CCc1cccc(N(CC)C(=O)Cn2c(C(=O)N[C@H]3CC[C@H](C(=O)NCCCCCCCC(=O)Oc4ccccc4)CC3)cc3ccccc32)c1 [JRW-0605, phenyl 8-(trans-4-(1-(2-(ethyl(3-ethylphenyl)amino)-2-oxoethyl)-1H-indole-2-carboxamido)cyclohexane-1-carboxamido)octanoate] | 0.12 nM |
| CCc1cccc(N(CC)C(=O)Cn2c(C(=O)N[C@H]3CC[C@H](C(=O)NCCCCCCI)CC3)cc3ccccc32)c1 [JRW-0622, 1-(2-(ethyl(3-ethylphenyl)amino)-2-oxoethyl)-N-(trans-4-((6-iodohexyl)carbamoyl)cyclohexyl)-1H-indole-2-carboxamide] | 0.14 nM |
| CCc1cccc(N(CC)C(=O)Cn2c(C(=O)N[C@H]3CC[C@H](C(=O)NCCCCCCBr)CC3)cc3ccccc32)c1 [JRW-0626, N-(trans-4-((6-bromohexyl)carbamoyl)cyclohexyl)-1-(2-(ethyl(3-ethylphenyl)amino)-2-oxoethyl)-1H-indole-2-carboxamide] | 0.2 nM |
| CCc1cccc(N(CC)C(=O)Cn2c(C(=O)N[C@H]3CC[C@H](C(=O)NCCCCCCNC(=O)c4ccc5c(c4)C(=O)OC54c5ccc(O)cc5Oc5cc(O)ccc54)CC3)cc3ccccc32)c1 [JRW-0818, N-(trans-4-((6-(3′,6′-dihydroxy-3-oxo-3H-spiro[isobenzofuran-1,9′-xanthene]-5-carboxamido)hexyl)carbamoyl)cyclohexyl)-1-(2-(ethyl(3-ethylphenyl)amino)-2-oxoethyl)-1H-indole-2-carboxamide] | 1.2 nM |
| CCc1cccc(N(CC)C(=O)Cn2c(C(=O)N[C@H]3CC[C@H](C(=O)NCCCCCCNC(=O)c4ccc5c(c4)C4(OC5=O)c5ccc(N(C)C)cc5Oc5cc(N(C)C)ccc54)CC3)cc3ccccc32)c1 [JRW-822, N-(trans-4-((6-(3′,6′-bis(dimethylamino)-3-oxo-3H-spiro[isobenzofuran-1,9′-xanthene]-6-carboxamido)hexyl)carbamoyl)cyclohexyl)-1-(2-(ethyl(3-ethylphenyl)amino)-2-oxoethyl)-1H-indole-2-carboxamide] | 3.3 nM |
| CCN(C(=O)Cn1c(C(=O)N[C@H]2CC[C@H](C(=O)NCCCCCCNC(=O)c3ccc4c(c3)C3(OC4=O)c4ccc(N(C)C)cc4Oc4cc(N(C)C)ccc43)CC2)cc2sccc21)c1cccc(C)c1 [JRW-0824] | 180 nM |
| CCc1cccc(N(CC)C(=O)Cn2c(C(=O)N[C@H]3CC[C@H](C(=O)NCCCCCCNC(=O)CCc4ccc5n4[B-](F)(F)[N+]4=C(C)C=C(C)C4=C5)CC3)cc3ccccc32)c1 [JRW-0827, N-(trans-4-((6-(3-(5,5-difluoro-7,9-dimethyl-5H-514,614-dipyrrolo[1,2-c:2′,1′-f][1,3,2]diazaborinin-3-yl)propanamido)hexyl)carbamoyl)cyclohexyl)-1-(2-(ethyl(3-ethylphenyl)amino)-2-oxoethyl)-1H-indole-2-carboxamide] | 2.7 nM |
| CCN(C(=O)Cn1c(C(=O)N[C@H]2CC[C@H](C(=O)NCCCCCCNC(=O)CCc3ccc4n3[B-](F)(F)[N+]3=C(C)C=C(C)C3=C4)CC2)cc2sccc21)c1cccc(C)c1 [JRW-0829, N-(trans-4-((6-(3-(5,5-difluoro-7,9-dimethyl-5H-514,614-dipyrrolo[1,2-c:2′,1′-f][1,3,2]diazaborinin-3-yl)propanamido)hexyl)carbamoyl)cyclohexyl)-4-(2-(ethyl(m-tolyl)amino)-2-oxoethyl)-4H-thieno[3,2-b]pyrrole-5-carboxamide] | 480 nM |
| CCN(C(=O)Cn1c(C(=O)N[C@H]2CC[C@H](C(=O)NCCCCCCCC(=O)ON3C(=O)CC(S(=O)(=O)O)C3=O)CC2)cc2sccc21)c1cccc(C)c1 (stereo partly drawn) [JRW-0830, sodium 1-((8-(trans-4-(4-(2-(ethyl(m-tolyl)amino)-2-oxoethyl)-4H-thieno[3,2-b]pyrrole-5-carboxamido)cyclohexane-1-carboxamido)octanoyl)oxy)-2,5-dioxopyrrolidine-3-sulfonate] | 4.2 nM |
| CCN(C(=O)Cn1c(C(=O)N[C@H]2CC[C@H](C(=O)NCCCCCCCC(=O)Oc3ccc(F)cc3)CC2)cc2sccc21)c1cccc(C)c1 [JRW-0831] | 320 nM |
| CCN(C(=O)Cn1c(C(=O)N[C@H]2CC[C@H](C(=O)NCCCCCCCC(=O)Oc3cc(F)cc(F)c3)CC2)cc2sccc21)c1cccc(C)c1 [JRW-0833, 3,5-difluorophenyl 8-(trans-4-(4-(2-(ethyl(m-tolyl)amino)-2-oxoethyl)-4H-thieno[3,2-b]pyrrole-5-carboxamido)cyclohexane-1-carboxamido)octanoate] | 20 nM |
| CCN(C(=O)Cn1c(C(=O)N[C@H]2CC[C@H](C(=O)NCCCCCCCC(=O)Oc3ccc(C#N)cc3)CC2)cc2sccc21)c1cccc(C)c1 [JRW-0834, 4-cyanophenyl 8-(trans-4-(4-(2-(ethyl(m-tolyl)amino)-2-oxoethyl)-4H-thieno[3,2-b]pyrrole-5-carboxamido)cyclohexane-1-carboxamido)octanoate] | 3.3 nM |
| CCN(C(=O)Cn1c(C(=O)N[C@H]2CC[C@H](C(=O)NCCCCCNC(=O)CCl)CC2)cc2sccc21)c1cccc(C)c1 [JRW-0844, N-(trans-4-((5-(2-chloroacetamido)pentyl)carbamoyl)cyclohexyl)-4-(2-(ethyl(m-tolyl)amino)-2-oxoethyl)-4H-thieno[3,2-b]pyrrole-5-carboxamide] | 41 nM |
| CCN(C(=O)Cn1c(C(=O)N[C@H]2CC[C@H](C(=O)NCCCCCCNC(=O)CCl)CC2)cc2sccc21)c1cccc(C)c1 [JRW-0846, N-(trans-4-((6-(2-chloroacetamido)hexyl)carbamoyl)cyclohexyl)-4-(2-(ethyl(m-tolyl)amino)-2-oxoethyl)-4H-thieno[3,2-b]pyrrole-5-carboxamide] | 16 nM |
| CCN(C(=O)Cn1c(C(=O)N[C@H]2CC[C@H](C(=O)NCCCCCCCC(=O)Oc3c(F)c(F)cc(F)c3F)CC2)cc2sccc21)c1cccc(C)c1 [JRW-0847] | 0.3 nM |
| CCN(C(=O)Cn1c(C(=O)N[C@H]2CC[C@H](C(=O)NCCCCCNC(=O)CBr)CC2)cc2sccc21)c1cccc(C)c1 [JRW-0870, N-(trans-4-((5-(2-bromoacetamido)pentyl)carbamoyl)cyclohexyl)-4-(2-(ethyl(m-tolyl)amino)-2-oxoethyl)-4H-thieno[3,2-b]pyrrole-5-carboxamide] | 42 nM |
| CCc1cccc(N(CC)C(=O)Cn2c(C(=O)N[C@H]3CC[C@H](C(=O)NCCCCCCCCNC(=O)c4ccc5c(c4)C(=O)OC54c5ccc(O)cc5Oc5cc(O)ccc54)CC3)cc3ccccc32)c1 [JRW-0882, N-(trans-4-((8-(3′,6′-dihydroxy-3-oxo-3H-spiro[isobenzofuran-1,9′-xanthene]-5-carboxamido)octyl)carbamoyl)cyclohexyl)-1-(2-(ethyl(3-ethylphenyl)amino)-2-oxoethyl)-1H-indole-2-carboxamide] | 1.1 nM |
| CCN(C(=O)Cn1c(C(=O)N[C@H]2CC[C@H](C(=O)NCCCCCCCCNC(=O)c3ccc4c(c3)C(=O)OC43c4ccc(O)cc4Oc4cc(O)ccc43)CC2)cc2sccc21)c1cccc(C)c1 [JRW-0883] | 5.4 nM |

same assay, conditions: 0.4 ng/ml NANOLUC in CO2 independent media+10% FBS; final furimazine 10 μM; no pre-incubation noted; read-out: IC50

| Structure (SMILES) | IC50 |
| --- | --- |
| CCN(C(=O)Cn1c(C(=O)N[C@H]2CC[C@H](C(=O)NCCCCCCNC(=O)c3ccc4c(c3)C3(OC4=O)c4ccc(N)cc4Oc4cc(N)ccc43)CC2)cc2sccc21)c1cccc(C)c1 [JRW-0863] | 36 nM |
| CCN(C(=O)Cn1c(C(=O)N[C@H]2CC[C@H](C(=O)NCCCCCCCCNC(=O)c3ccc4c(c3)C(=O)OC43c4ccc(N)cc4Oc4cc(N)ccc43)CC2)cc2sccc21)c1cccc(C)c1 [JRW-0887] | 6.3 nM |
